Data from US6663897B2, “Oral itraconazole formulations and methods of making the same” (DSM IP Assets B.V., priority 2001, dated 2003).

Columns and labels:
[1] = Stability study under accelerated conditions (ICH guidelines); type: physicochemical; settings: three months
Description: The batch samples prepared under Example 1 were evaluated for stability under accelerated conditions under ICH guidelines and three months stability results are furnished in Table 4. Physical Examination Specification: Size 0 elongated hard gelatin capsule with an opaque white cap and a natural body. Capsules were substantially free from rough edges and spots and were filled with off white colored coated microcrystalline cellulose spheres.

[2] = cited from earlier work

Structure (SMILES): CCC(C)n1ncn(-c2ccc(N3CCN(c4ccc(OCC5COC(Cn6cncn6)(c6ccc(Cl)cc6Cl)O5)cc4)CC3)cc2)c1=O (racemic) [Itraconazole, (±)-cis-4-[4-[4-[4-[[2-(2,4-dichlorophenyl)-2-(1H-1,2,4-triazol-1-ylmethyl)-1,3-dioxolan-4-yl]methoxy]phenyl]-1-piperazinyl]phenyl]-2,4-dihydro-2-(1-methylpropyl)-3H-1,2,4-triazol-3-one]
- degradation of itraconazole [1]: no significant degradation
- 0.1 N Hydrochloric acid solubility ([2]; 0.1 N Hydrochloric acid): < 6 micrograms per milliliter
- water solubility ([2]; water): less than 1 microgram per milliliter
